Test results published in patent publication US8252781B2, “1,2-diazetidin-3-one derivatives and drugs containing same” (Kowa Company, Ltd., priority 2008, dated 2012).
Read-outs that look alike come from different tables or passages of the source.

What was measured:
mouse 11β-HSD1 = target: T1, mouse 11β-HSD1 (Mus musculus, UniProt P50172); test: Enzyme inhibitory activity, mouse 11β-HSD1 (lysate of stably expressing CHO-K1 cells, cortisol by competitive ELISA); type: biochemical; conditions: Table 2; mouse 11β-HSD1, cell lysate, 37° C. for 1 hour; read-out: m HSD1 in vitro assay (IC50 uM)
T1 construct: The obtained PCR products of about 0.9 kbp, 1.2 kbp, and 0.9 kbp were subcloned into an expression vector pcDNA3.1+/Zeo; expressed in transfected cells
T1 sequence (P50172 whole entry): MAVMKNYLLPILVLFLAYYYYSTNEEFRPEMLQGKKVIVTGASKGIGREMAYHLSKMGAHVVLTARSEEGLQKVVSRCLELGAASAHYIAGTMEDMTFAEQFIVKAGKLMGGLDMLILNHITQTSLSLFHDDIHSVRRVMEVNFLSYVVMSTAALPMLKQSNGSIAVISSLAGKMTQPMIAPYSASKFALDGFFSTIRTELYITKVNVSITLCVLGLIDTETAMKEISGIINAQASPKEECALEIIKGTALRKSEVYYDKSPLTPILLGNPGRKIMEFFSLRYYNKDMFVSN
Summary of the method: (§1)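 Sonicated lysates of stably transfected cells (diluted to 0.1–0.4 mg/mL before addition) reacted for 1 h at 37 °C in pH 7.4 Tris/sucrose/EGTA/EDTA/MgCl2 buffer with 100 nmol/L cortisone or cortisol and 400 μmol/L NADPH or NAD+, then were heat-stopped at 95 °C. Inhibition rate = 100 minus residual activity.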

human 11β-HSD1 = target: T2, human 11β-HSD1 (Homo sapiens, UniProt P28845); test: Enzyme inhibitory activity, human 11β-HSD1 (lysate of stably expressing HEK293 cells, cortisol by competitive ELISA); type: biochemical; conditions: human 11β-HSD1, cell lysate, 37° C. for 1 hour, read-out: h HSD1 in vitro assay (IC50 uM)
T2 construct: The obtained PCR products of about 0.9 kbp, 1.2 kbp, and 0.9 kbp were subcloned into an expression vector pcDNA3.1+/Zeo; expressed in transfected cells
T2 sequence (P28845 whole entry): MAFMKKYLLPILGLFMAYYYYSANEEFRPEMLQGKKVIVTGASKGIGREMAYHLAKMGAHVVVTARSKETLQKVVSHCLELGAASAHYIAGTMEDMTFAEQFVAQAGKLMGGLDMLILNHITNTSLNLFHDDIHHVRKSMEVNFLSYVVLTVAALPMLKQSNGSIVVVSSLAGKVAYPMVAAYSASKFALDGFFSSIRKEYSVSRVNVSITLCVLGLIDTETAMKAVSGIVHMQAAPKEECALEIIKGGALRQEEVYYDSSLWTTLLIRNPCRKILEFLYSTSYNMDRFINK
Summary of the method: as §1

IC50 (mouse 11β-HSD1) [µM] | IC50 (human 11β-HSD1; Table 1) [µM] | IC50 (human 11β-HSD1; Table 2) [µM] | SMILES
0.24 | 0.025 |  | CC1(C)C(=O)N(C2C3CC4CC(C3)CC2C4)N1Cc1ccccc1C(F)(F)F (stereo not shown) [Example 42, 4,4-dimethyl-2-(adamantan-2-yl)-1-[2-(trifluoromethyl)benzyl]-1,2-diazetidin-3-one]
0.03 |  | 0.49 | Cc1ccccc1N1N(C2C3CC4CC(C3)CC2C4)C(=O)C1(C)C (stereo not shown) [Example 192, 4,4-dimethyl-1-(2-methylphenyl)-2-(adamantan-2-yl)-1,2-diazetidin-3-one]
0.24 | 0.22 |  | CC1(C)C(=O)N(C2C3CC4CC(C3)CC2C4)N1C(=O)c1ccccc1O (stereo not shown) [Example 138, 1-[(2-hydroxyphenyl)carbonyl]-4,4-dimethyl-2-(adamantan-2-yl)-1,2-diazetidin-3-one]
0.7 |  | 0.45 | CC1(C)C(=O)N(C2C3CC4CC(C3)CC2C4)N1CCCc1ccccc1 (stereo not shown) [Example 261, 4,4-dimethyl-1-(3-phenylpropyl)-2-(adamantan-2-yl)-1,2-diazetidin-3-one]
0.47 |  | 0.55 | CC1(C)C(=O)N(C2C3CC4CC(C3)CC2C4)N1CCc1ccccc1 (stereo not shown) [Example 266, 4,4-dimethyl-1-(2-phenylethyl)-2-(adamantan-2-yl)-1,2-diazetidin-3-one]
0.084 |  | 0.36 | CC1(C)C(=O)N(C2C3CC4CC(C3)CC2C4)N1Cc1ccc(F)cc1 (stereo not shown) [Example 15, 1-(4-fluorobenzyl)-4,4-dimethyl-2-(adamantan-2-yl)-1,2-diazetidin-3-one]
0.58 |  | 0.2 | CC1(C)C(=O)N(C2C3CC4CC(C3)CC2C4)N1Cc1ccccc1[N+](=O)[O-] (stereo not shown) [Example 47, 4,4-dimethyl-1-(2-nitrobenzyl)-2-(adamantan-2-yl)-1,2-diazetidin-3-one]
0.054 |  | 0.25 | Cc1cccc(CN2N(C3C4CC5CC(C4)CC3C5)C(=O)C2(C)C)c1 (stereo not shown) [Example 32, 4,4-dimethyl-1-(3-methylbenzyl)-2-(adamantan-2-yl)-1,2-diazetidin-3-one]
0.073 |  | 0.44 | CC1(C)C(=O)N(C2C3CC4CC(C3)CC2C4)N1Cc1cccc(Cl)c1 (stereo not shown) [Example 28, 1-(3-chlorobenzyl)-4,4-dimethyl-2-(adamantan-2-yl)-1,2-diazetidin-3-one]
0.15 | 0.44 |  | Cc1c(F)cccc1C(=O)N1N(C2C3CC4CC(C3)CC2C4)C(=O)C1(C)C (stereo not shown) [Example 157, 1-[(3-fluoro-2-methylphenyl)carbonyl]-4,4-dimethyl-2-(adamantan-2-yl)-1,2-diazetidin-3-one]
0.088 |  | 0.84 | Cc1ccc(CN2N(C3C4CC5CC(C4)CC3C5)C(=O)C2(C)C)cc1 (stereo not shown) [Example 14, 4,4-dimethyl-1-(4-methylbenzyl)-2-(adamantan-2-yl)-1,2-diazetidin-3-one]
0.1 |  | 0.26 | CC1(C)C(=O)N(C2C3CC4CC(C3)CC2C4)N1Cc1ccccc1F (stereo not shown) [Example 38, 1-(2-fluorobenzyl)-4,4-dimethyl-2-(adamantan-2-yl)-1,2-diazetidin-3-one]
0.073 |  | 0.044 | CC1(C)C(=O)N(C2C3CC4CC(C3)CC2C4)N1Cc1cc(Cl)ccc1Cl (stereo not shown) [Example 44, 1-(2,5-dichlorobenzyl)-4,4-dimethyl-2-(adamantan-2-yl)-1,2-diazetidin-3-one]
0.094 |  | 0.03 | CC1(C)C(=O)N(C2C3CC4CC(C3)CC2C4)N1Cc1ccccc1Cl (stereo not shown) [Example 27, 1-(2-chlorobenzyl)-4,4-dimethyl-2-(adamantan-2-yl)-1,2-diazetidin-3-one]
0.052 |  | 0.054 | Cc1ccc(C)c(CN2N(C3C4CC5CC(C4)CC3C5)C(=O)C2(C)C)c1 (stereo not shown) [Example 56, 1-(2,5-dimethylbenzyl)-4,4-dimethyl-2-(adamantan-2-yl)-1,2-diazetidin-3-one]

Further lines, the compound ahead of its results:

SMILES | IC50 (mouse 11β-HSD1) [µM] | IC50 (human 11β-HSD1; Table 1) [µM] | IC50 (human 11β-HSD1; Table 2) [µM]
CC1(C)C(=O)N([C@H]2C3CC4CC2C[C@](C(N)=O)(C4)C3)N1c1cccc2ccccc12 [Example 275, trans-4-[2-(naphthalen-1-yl)-3,3-dimethyl-4-oxo-1,2-diazetidin-1-yl]adamantane-1-carboxamide] | 0.25 | 0.011 | 
CC1(C)C(=O)N(C2CCCCCC2)N1Cc1ccccc1Cl [Example 83, 1-(2-chlorobenzyl)-2-cycloheptyl-4,4-dimethyl-1,2-diazetidin-3-one] | 0.66 |  | 0.092
CC1(C)C(=O)N([C@H]2C3CC4CC2C[C@](O)(C4)C3)N1Cc1cc(F)ccc1Cl [Example 67, trans-1-(2-chloro-5-fluorobenzyl)-2-(5-hydroxyadamantan-2-yl)-4,4-dimethyl-1,2-diazetidin-3-one] | 0.29 |  | 0.12
CC1C(=O)N(C2C3CC4CC(C3)CC2C4)N1Cc1ccccc1 (stereo not shown) [Example 8, 1-benzyl-4-methyl-2-(adamantan-2-yl)-1,2-diazetidin-3-one] | 0.18 |  | 0.79
Cc1cccc(C(=O)N2N(C3CCCCCCC3)C(=O)C2(C)C)c1 [Example 151, 2-cyclooctyl-4,4-dimethyl-1-[(3-methylphenyl)carbonyl]-1,2-diazetidin-3-one] | 0.3 | 0.81 | 
COc1ccccc1N1N(C2CCCCCCC2)C(=O)C1(C)C [Example 220, 2-cyclooctyl-1-(2-methoxyphenyl)-4,4-dimethyl-1,2-diazetidin-3-one] | 0.088 | 0.056 | 
CC1(C)C(=O)N(C2C3CC4CC2CC(C(N)=O)(C4)C3)N1c1cccc(Cl)c1Cl (stereo not drawn) [Example 276, cis-4-[2-(2,3-dichlorophenyl)-3,3-dimethyl-4-oxo-1,2-diazetidin-1-yl]adamantane-1-carboxamide] | 0.4 | 0.007 | 0.007
CC1(C)C(=O)N([C@H]2C3CC4CC2C[C@](Cl)(C4)C3)N1c1ccc(F)c2ccccc12 [Example 255, trans-2-(5-chloroadamantan-2-yl)-1-(4-fluoronaphthalen-1-yl)-4,4-dimethyl-1,2-diazetidin-3-one] | 0.18 | 0.003 | 
CC1(C)C(=O)N(C2CC3CCC2C3)N1Cc1cccc(Cl)c1Cl (stereo not shown) [Example 79, 2-(bicyclo[2.2.1]heptan-2-yl)-1-(2,3-dichlorobenzyl)-4,4-dimethyl-1,2-diazetidin-3-one] | 0.36 |  | 0.22
CC1(C)C(=O)N([C@H]2C3CC4CC2C[C@@](O)(C4)C3)N1c1cccc2ccccc12 [Example 247, cis-2-(5-hydroxyadamantan-2-yl)-4,4-dimethyl-1-(naphthalen-1-yl)-1,2-diazetidin-3-one] | 0.26 | 0.027 | 
Cc1ccccc1C(=O)N1N(C2CCCCCCC2)C(=O)C1(C)C [Example 152, 2-cyclooctyl-4,4-dimethyl-1-[(2-methylphenyl)carbonyl]-1,2-diazetidin-3-one] | 0.54 | 0.23 | 
CC1(C)C(=O)N([C@H]2C3CC4CC2C[C@](O)(C4)C3)N1c1cccc2ccccc12 [Example 236, trans-2-(5-hydroxyadamantan-2-yl)-4,4-dimethyl-1-(naphthalen-1-yl)-1,2-diazetidin-3-one] | 0.31 | 0.095 | 
CC1(C)C(=O)N([C@H]2C3CC4CC2C[C@](O)(C4)C3)N1c1ccc(N)cc1 [Example 235, trans-1-(4-aminophenyl)-2-(5-hydroxyadamantan-2-yl)-4,4-dimethyl-1,2-diazetidin-3-one] | 0.75 |  | 0.056
CC1(C)C(=O)N(C2CCCCCC2)N1Cc1cc(Cl)ccc1Cl [Example 85, 2-cycloheptyl-1-(2,5-dichlorobenzyl)-4,4-dimethyl-1,2-diazetidin-3-one] | 0.37 |  | 0.053
COCOc1ccccc1N1N([C@H]2C3CC4CC2C[C@](Cl)(C4)C3)C(=O)C1(C)C [Example 252, trans-2-(5-chloroadamantan-2-yl)-1-[2-(methoxymethoxy)phenyl]-4,4-dimethyl-1,2-diazetidin-3-one] | 0.24 | 0.034 | 
